What is called Kd is the equilibrium constant for the complex coming apart.

This is an account of results in article PMC6117054, “The Congo red derivative FSB binds to curli amyloid fibers and specifically stains curliated E. coli” (PLoS ONE, 2018).

This test concerns the target T1, curli (native curli fibers; monomeric unit CsgA) (Escherichia coli, UniProt P28307).
T1 construct: native curli amyloid fibers isolated from E. coli MC4100; mature secreted CsgA (signal peptide removed); 13 kDa monomeric unit; fiber polymer
Kind of test: depletion (centrifugation) assay, absorbance of free dye at […] nm, saturation fit. In kind it is binding.

T1 sequence (P28307 21-151): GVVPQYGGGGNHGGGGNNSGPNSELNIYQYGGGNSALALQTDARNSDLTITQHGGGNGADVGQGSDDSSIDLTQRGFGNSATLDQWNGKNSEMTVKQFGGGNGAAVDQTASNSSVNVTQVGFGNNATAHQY

`O=C(O)c1cc(/C=C/c2ccc(/C=C/c3ccc(O)c(C(=O)O)c3)c(F)c2)ccc1O` [FSB, (E,E)-1-fluoro-2,5-bis(3-hydroxycarbonyl-4-hydroxy) styrylbenzene] yielded a Kd of 7.9 µM.
